Source: patent US4520200A, “Isoxazole derivatives” (Zambon S.p.A., priority 1978, dated 1985)
“And” between values parts separate entries of the source, which are not always exact repeats. Equal entries are not always repeated.

Columns and labels:
[1] = acute toxicity, LD50, mouse; details: in vivo
[2] = acute toxicity, LD50, rat; details: in vivo
[3] = tolerance in different animal species and administration ways; assay type: in vivo

Question: Which LD50 ([1]; ip) does the source give for `CC(C)(C)NCC(O)c1cc(Br)no1` (stereo not drawn) [Z 1170, 1-(3-bromo-isoxazol-5-yl)-2-ter.butylaminoethanol] here?
Answer: The LD50 was 230 mg/kg.

Question: And the LD50 ([1]; iv, i.v. (1 ml/100 g/60"))?
Answer: Its LD50 is 126 mg/kg and 420 µmol/kg.

Question: What about the LD50 ([1]; po, os) of the same compound?
Answer: Its LD50 is 770 mg/kg.

Question: What about the LD50 ([2]; iv, i.v. (1 ml/100 g/60")) of the same compound?
Answer: The LD50 was 196 mg/kg and 650 µmol/kg.

Question: And the LD50 ([2]; po, os)?
Answer: Its LD50 is greater than 2000 mg/kg.

Question: What about the tolerance [3] of the same compound?
Answer: Its tolerance is “particularly favorable tolerance”.
